Assay results taken from patent US20080146495A1, “Methods for Treating Hiv by Inhibiting Cd4 Down-Modulation” (The Regents of the University of California, priority 2005, published 2008).

Key:
Format in all cases: cell-based
[1] = tested on: HIV-1
[2] = tested on: HIV-1 Nef (NA7) fused to GFP; details: 293T cells transduced with pHR'-CMV vectors, transfected with Nef (NA7)-GFP
[3] = tested on: HIV-1 R9
[4] = tested on: HIV-1 (R9); test: HIV-induced CD4 down-modulation in transduced CD4-positive cell lines (SupT1, C8166, MAGIC5B)
[5] = tested on: HIV-1 (R9); test: Infectivity in MAGIC5 cells of particles released from transduced SupT1, C8166 and MAGIC5B cells; details: three cell types (SupT1, C8166, MAGIC5B); compared to control GFP vectors
Procedure: Infectivity assays were performed with MAGIC-5 cells using equal amounts of input virus (measured as ng p24 protein) in the presence of 20 μg/ml DEAE dextran. Infection was allowed for 48 hours. Routinely, after 8 hrs of infection, 1 μM AZT was added to block second rounds of virus replication. Infected cells were scored after staining for beta-galactosidase with X-Gal.
Truncated receptor provided to a cell via one of the above-described vectors negatively interferes with HIV-induced down-regulation of endogenous CD4 receptor. […] Though any suitable cell line could be used, the three chosen were: SupT1, C8166, and MAGIC5B. These were selected because they express high levels of viral receptor, as shown in the bottom panel of FIG. 7. Transduction efficiencies with GFP control vectors were higher than 90% in all cell lines, as estimated by flow cytometry. Infection of mock-transduced cells with HIV-1 led to efficient down-modulation of CD4. […] In these cultures, a population of low-CD4/p24-positive infected cells that had undergone receptor down-modulation emerged. […] The infectivity of viral particles released from the cells was determined as with respect to FIG. 5, above.

[6] = tested on: HIV-1 (R9); test: Surface CD4 down-modulation in transduced PBMC infected with HIV-1 (flow cytometry)
[7] = tested on: CXCR4-tropic R9 HIV-1 strain; test: Viral replication assay in transduced Jurkat Low-CD4 cells (p24 accumulation)
[8] = tested on: HIV-1 Env (gp160, gp120, gp41)
[9] = virions purified through sucrose cushions

Row | Molecule | extent of inhibition of infectivity relative to that by CD4Δcyt expression ([1]; 1 μM added to target MAGIC5 cells) | effect of Nef-GFP expression on surface expression of the CD4 variant [2] | amount on the surface of infected cells, mean values [3] | down-modulation of surface receptor by HIV-1 (VSV) [3] | surface levels in HIV-1 infected cells, higher than in infected cells transduced with wild-type CD4 [3] | extent of inhibition in single-round infectivity assays [1] | reduced infectivity of viral progeny [1] | reduction of infectivity of HIV-1 [1] | surface CD4 levels in infected cells, higher than in mock-infected cells ([4]; SupT1, C8166, MAGIC5B cells) | receptor down-modulation after HIV-1 infection of transduced CD4-positive cells ([4]; SupT1, C8166, MAGIC5B cells, 48 h after infection) | p24-positive cells with low levels of CD4 receptor ([4]; cultures of SupT1 and C8166 cells) | infectivity of viral particles released from transduced cells [5] | reduction in CD4 down-modulation compared to cells transduced with full-length receptor ([6]; PBMC infected with HIV-1) | numbers of low-CD4/GFP-positive cells after HIV-1 infection ([6]; PBMC transduced to similar levels with pWPI vector) | HIV-1 replication (p24 accumulation in cultures) ([7]; Jurkat Low-CD4 cells, HIV-1 R9) | revertant viruses ([7]; after more than 60 days, two independent experiments, Jurkat Low-CD4 cells exposed to HIV-1) | gp160 envelope precursor in producer cell lysates (anti-gp120 western blot) ([8]; total cell lysates of 293T producer cells) | steady-state levels of gp41 in producer cells ([8]; transduced 293T cells) | gp41 incorporation in membranes from virions [8, 9] | gp120 incorporation into / exclusion from virions [8, 9]
1 | Cc1cn([C@H]2C[C@H](N=[N+]=[N-])[C@@H](CO)O2)c(=O)[nH]c1=O [AZT, reference compound] | comparable | – | – | – | – | – | – | – | – | – | – | – | – | – | – | – | – | – | – | –
2 | CD4Δcyt | – | did not alter the expression | 2857 | completely resistant to down-modulation | 11 fold | greater than 99% | 100 fold | more than 1000 fold | 3- to 4 fold | failed to down-modulate the receptor | no longer observed | largely diminished infectivity | more than 10 fold | reduced numbers of low-CD4/GFP-positive cells | complete abrogation of HIV-1 replication | not detected | accumulation of a 160 kDa protein band | reduction in the steady-state levels of gp41 | Reductions in gp41 incorporation | more severe
